Drawing on a melting point compilation (Tetko et al.; mined from patent text by program, amines drawn as free bases though some values may be those of a salt), this text covers melting point for 88 compounds.

In general, melting point refers to the temperature of the solid-liquid transition.

In turn, `CNC(=O)CC1CN=C(c2cc3cc(Oc4ccc(S(C)(=O)=O)nc4)cc(OC4CCOCC4)c3[nH]2)S1` (stereo not drawn) yielded a melting point of 143 to 144 °C.

Compound `O=c1occ(-c2ccccc2)n1-c1ccc(F)cc1` had a melting point of 145 to 147 °C.

As to `COc1ccc(S(=O)(=O)N(CCCO)c2ccccc2/C=C/c2ccncc2)cc1`, the melting point lay in the range of 164 to 167 °C.

In turn, `CC(C)(C)c1ccc(N2C[C@@H](COS(C)(=O)=O)CC2=O)cc1` returned a melting point of 108 to 109 °C.

The compound `Cc1ccc(CN2CCC3(CC2)CSC2=C(O3)c3ccccc3C(=O)C2=O)cc1` displayed a melting point of 156 to 158 °C.

The compound `CC(C)[C@H](NC(=O)N(C)Cc1csc(NC(=O)OC(C)(C)C)n1)C(=O)N[C@@H](Cc1ccccc1)[C@@H](O)C[C@H](Cc1ccccc1)NC(=O)OCc1cccnc1` yielded a melting point of 95 to 98 °C.

Consider `Cc1c(C)c2c(c(C)c1O)SC(C)(c1ccccc1)O2` (stereo not drawn), for which the melting point lay in the range of 80 to 81 °C.

In turn, `CC(=O)N(c1ccc(O)cc1)N1CCCCC1` registered a melting point of 217 to 218 °C.

Turning to `C[C@]1(CN2CCC(OCc3ccc(C(F)(F)F)cc3)CC2)Cn2cc([N+](=O)[O-])nc2O1`, the melting point was in the range of 91 to 92 °C.

For the compound `Nc1ncccc1OCc1c(F)cc(F)cc1F`, the melting point was 122 to 124 °C.

The compound `CC(C)CN1CCC2(CC1)CSC1=C(O2)c2ccccc2C(=O)C1=O` came in with a melting point of 158 to 161 °C.

`O=C(O)C(=O)c1ccc(SCCOC2CCCCCCC2)cc1`: the melting point lay within 84 to 85 °C.

As for `CC(CC#N)Nc1cc(Oc2ccc(S(=O)(=O)C(C)C)cc2Cl)ccc1[N+](=O)[O-]` (stereo not drawn), the melting point stood at 132 °C.

As to `CCCCc1nc(N)c(N)c(=O)[nH]1`, the melting point lay within 160 to 165 °C.

Consider `O=C(O)c1cn(C2CC2F)c2c(F)c(F)c(F)cc2c1=O` (stereo not drawn), for which the melting point fell in the range of 232 to 235 °C.

As for `COc1ccc(C(=O)c2cc3cccc(Br)c3o2)cc1OC`, the melting point is 137 to 138 °C.

`CCCCCNC(=O)[C@@H]1CCCN1C(=O)[C@@H](N)CC` showed a melting point of 140 to 141 °C.

`Cc1c2c3c(nc(N)c2nn1C)CCCC3`: the melting point lay within 258 to 259 °C.

Compound `CCCc1nnc(Cc2ccc(N)cc2)o1` gave a melting point of 60 to 61 °C.

Take `CNc1nc(-c2cccc(NC(=O)c3cccc(OC)c3)c2)c2cc(OC)c(OC)cc2n1`: the melting point lay within 193 to 195 °C.

In turn, `Cc1cc(C(N)=O)cc(C)c1C(=O)O` yielded a melting point of 238 to 240 °C.

Consider `COc1cccc2c1nc(C(F)F)n2-c1nc(N2CCOCC2)c2cnn(C3CCN(S(=O)(=O)CCl)CC3)c2n1`, for which the melting point fell in the range of 250 to 253 °C.

Consider `COCN(C(=O)Nc1ccc(Cl)cc1)C(=O)c1c(Cl)cccc1Cl`, for which the melting point was found to be 122 °C.

The compound `CCOC(=O)c1cnn(-c2ccccc2)c1OC` showed a melting point of 67 °C.

`Oc1ccc(-c2ncc3ncc(Nc4ccncc4)cc3n2)cc1` came in with a melting point of more than 268 °C.

`Cc1cc([N+](=O)[O-])c(NC(C)C(=O)N(C)O)c([N+](=O)[O-])c1` (stereo not drawn) registered a melting point of 171 to 172 °C.

Take `CS(=O)(=O)c1ccc(-c2nn3c4c(oc3c2-c2ccc(F)cc2)CSCC4)cc1`: the melting point was 178 to 180 °C.

Consider `CCc1cc(C)c2c(-c3cccc(Cl)c3)cc(=S)n(C)c2n1`, for which the melting point was 131 to 133 °C.

For the compound `COC(=O)Nc1cc(Cl)nc(N)n1`, the melting point is 225 to 226 °C.

`COc1cc2c(cc1C(O)c1ccccc1)C=C2C(=O)O` (stereo not drawn) came in with a melting point of 143 to 146 °C.

Compound `OC(COc1ccc(Cl)cc1)CN1CCN(c2ncccc2F)CC1` (stereo not drawn) yielded a melting point of 73 to 76 °C.

On to `O=c1[nH]c2cc(Cl)ccc2c(O)c1-c1ccc2c(c1)OCO2`, for which the melting point was more than 350 °C.

Compound `CCCNC1Cc2cccc3[nH]c(=O)n(c23)C1` (stereo not drawn) yielded a melting point of more than 300 °C.

`CC1(C)C(=O)Nc2cc(C=O)ccc2N(CC2CC2)C1=O` showed a melting point of 124 to 125 °C.

`CNC(=O)c1cccc(NC(=O)CC2CCCCC2)c1` returned a melting point of 183 °C.

On to `O=C(O)CCCC(=O)N1C2CCC(C2)C1C(=O)O` (stereo not drawn), for which the melting point was in the range of 155 to 159 °C.

`COc1ncccc1C(=O)NCC1CCN(C[C@H]2COc3ccc(Cl)cc3O2)CC1` yielded a melting point of 72 to 75 °C.

With `Brc1c(OCc2ccccc2)cccc1C1OCCCO1`, the melting point is 73 to 74 °C.

On to `Cc1nc(N2CCc3ccccc3CC2)c(C#N)c(=O)n1C(F)F`, for which the melting point was determined as 143 °C.

Turning to `C=C(C)C(=O)Nc1cccc(OC(=O)Nc2ccccc2)c1`, the melting point was in the range of 177 to 178 °C.

Compound `CC(Oc1ccc([N+](=O)[O-])cc1)c1c(F)ccc(F)c1F` (stereo not drawn) showed a melting point of 120 °C.

With `CCCn1nc(C(=O)OCC)cc1CC(C)(C)NC(=O)OC(C)(C)C`, the melting point fell in the range of 109 to 111 °C.

In turn, `Cc1cc(CCC(=O)c2ccc(-c3ccc(C(F)(F)F)cc3)s2)cc(C)c1OC(C)(C)C(=O)O` showed a melting point of 157 to 158 °C.

For the compound `O=C(O)c1ccc(OCCCCn2c(-c3ccccc3)nc(-c3ccccc3)c2-c2ccccc2)cc1`, the melting point was 202 to 203 °C.

As to `CC(C)(C)OC(=O)NC(Cc1ccccc1)C(=O)NC1N=C(c2ccccc2)c2ccccc2NC1=O` (mixture of isomers), the melting point lay within 143 to 153 °C.

`CCc1ccc(Nc2nc3cc(NC(=O)c4cc(F)cc(C(F)(F)F)c4)ccc3o2)cc1`: the melting point is more than 250 °C.

For the compound `CCOc1cc2c(c3c1OC(C)(C)C3)C(c1cccc(N3C(=O)NC(C)(C)C3=O)c1)=NC(C)(C)C2`, the melting point is 237 to 238 °C.

The compound `CCN[C@H]1CCC[C@H](Oc2ccc3[nH]ncc3c2)C1` (relative stereo) yielded a melting point of 116 to 118 °C.

On to `CC(C)C(NC(=O)N(C)Cc1ccccn1)C(=O)N(C(=O)C(NC(=O)N(C)Cc1nccs1)C(C)C)C(Cc1ccccc1)C(O)CCCc1ccccc1` (stereo not drawn), for which the melting point was in the range of 158 to 160 °C.

Take `O=C1CCC(N2Cc3c(OCc4ccc(CN5CCC(F)(F)C5)cc4)cccc3C2=O)C(=O)N1` (stereo not drawn): the melting point was in the range of 126 to 128 °C.

In turn, `CCN(CC)CCNC(=O)c1cccc2nc3cc(I)ccc3nc12` had a melting point of 140 to 142 °C.

For the compound `CSC(=NCCSCc1csc(NC(=N)N)n1)NC#N`, the melting point was in the range of 127 to 134 °C.

The compound `COC(=O)[C@H]1CC[C@@H](n2nc(-c3c(-c4ccccc4)nn4ccccc34)ccc2=O)[C@H](O)C1` (relative stereo) yielded a melting point of 169 to 172 °C.

Compound `Clc1cc(-n2cncn2)ncn1` yielded a melting point of 93 to 97 °C.

As to `COC(=O)C(Cl)=Cc1cccc([N+](=O)[O-])c1Cl`, the melting point lay within 110 to 112 °C.

The compound `CC1(C)Oc2cc([N+](=O)[O-])sc2C(N2CCCCC2=O)C1O` (stereo not drawn) gave a melting point of 158 °C.

For `CC(C)(c1ccc(OP(=O)(c2ccccc2)c2ccccc2)cc1)c1ccc(OP(=O)(c2ccccc2)c2ccccc2)cc1`, the melting point fell in the range of 71 to 72 °C.

In turn, `COc1ccc(CCc2ccncc2)c2c1OCC2C` (stereo not drawn) returned a melting point of 89 to 93 °C.

Compound `CC(C)OC(=O)N1c2cncnc2NC(=O)C1C` (racemic) had a melting point of 160 to 162 °C.

Turning to `CCOC(=O)c1cc2cc(Cl)c(F)cc2[nH]1`, the melting point lay within 160 to 164 °C.

Compound `CC1(C)OC(=O)C(Oc2ccc(Cl)nc2)=C1c1ccc(S(C)(=O)=O)cc1` registered a melting point of 196 to 197 °C.

In the case of `CCCCCCCC(O)C(O)Cc1cc(C(N)=O)ccc1C(N)=O` (stereo not drawn), the melting point stood at 118 °C.

As for `CC(=O)NC[C@H]1CN(c2ccc(N3CCC(n4cc(C(C)=O)nn4)CC3)c(F)c2)C(=O)O1`, the melting point fell in the range of 220 to 222 °C.

`CCCCc1nc2cccnc2n1-c1ccc(OCc2ccc(OC)c(OC3CC4CCC3C4)c2)cc1` (stereo not drawn) gave a melting point of 130 to 132 °C.

In turn, `CC12C=CC(=O)C=C1C(N)CC1C2CCC2(C)C(=O)CCC12` (stereo not drawn) showed a melting point of 186 to 191 °C.

As for `Cc1c(C(=O)O)cccc1-c1cccs1`, the melting point lay within 91.5 to 93 °C.

With `O=C(O)Cc1ccc(NC(=O)c2ccccc2)cc1`, the melting point is 207 to 208 °C.

`O=[N+]([O-])c1ccccc1Nc1ccccc1O` yielded a melting point of 67 to 70 °C.

In the case of `O=C(CF)c1ccc(F)cc1F`, the melting point lay in the range of 57 to 58 °C.

`O=C(c1ccccc1)c1ccc([N+](=O)[O-])c(C(=O)O)c1` had a melting point of 169 °C.

Compound `O=C(NC1CC1)c1ccc(-c2ccc(C(CC3CCOCC3)c3ccc(S(=O)(=O)C4CC4)cc3)[nH]2)nc1` (stereo not drawn) gave a melting point of 134 to 136 °C.

In turn, `CCCCCCCCCCCCCC(=O)O[C@H](CCCCCCCCCCC)CC(=O)O` registered a melting point of 28 to 29 °C.

In the case of `COCCOc1cc2ncnc(NC3=CC(=O)C(N4CCOCC4)=CC3=O)c2cc1OC`, the melting point lay in the range of 239 to 243 °C.

In turn, `CC1=CC(=O)CC(c2cccc(Cl)c2)N1C` (stereo not drawn) displayed a melting point of 82 °C.

Turning to `CCCCCCCCCCCCCCN(C)c1ccc([N+](=O)[O-])cc1C(=O)O`, the melting point was 100 to 101 °C.

The compound `N=C(OCC1CC1)N1CCC(c2nsc3ccccc23)CC1` yielded a melting point of 85 to 87 °C.

For the compound `Fc1ccc(C=Nc2c3c(nc4ccccc24)CCCC3)cc1`, the melting point lay in the range of 161 to 163 °C.

As for `NS(=O)(=O)c1cccc(C(=O)Cl)c1`, the melting point was 123 °C.

For `CCOC(=O)C1(C)C(=O)Nc2cc(N)ccc21` (stereo not drawn), the melting point came out at 248 °C.

In turn, `O=C(O)c1cnc2c3cccc([N+](=O)[O-])c3ccn2c1=O` came in with a melting point of more than 300 °C.

In turn, `COc1ccc(N(C)CC2CCOCC2)cc1N` came in with a melting point of 97 to 99 °C.

Turning to `Cc1ccccc1NC(=O)c1cc(Br)c(OCc2ccccc2)cc1OCc1ccccc1`, the melting point fell in the range of 174 to 176 °C.

Regarding `CC(C)(OCc1cc2nc(C(F)(F)F)ccc2n1S(=O)(=O)c1ccccc1)C(=O)O`, the melting point was 122 to 125 °C.

The compound `COC(=O)C1=C(C)NC(C)=C(C(=O)OCCOc2cccc(CCNCC(O)COc3ccc(COCCOC(C)C)cc3)c2)C1c1cccc([N+](=O)[O-])c1` (stereo not drawn) displayed a melting point of 65 to 67 °C.

`COC1=Cc2ccccc2Nc2ccccc21` had a melting point of 124 °C.

The compound `COc1cccc(C2(c3cccc(OC)c3)CC2(C)C=O)c1` (stereo not drawn) returned a melting point of 122 to 123 °C.

`COP(=O)(OC)[C@H](C)NC(=O)[C@H](C)N` came in with a melting point of 103 to 106 °C.

The compound `CCCc1c(O)c(Cl)cc(C(=O)OC)c1O` came in with a melting point of 75 to 76 °C.
